Assay results reported in patent publication US20140323504A1, “Pyrazolo[4,3-c]Pyridine Derivatives As Kinase Inhibitors” (Cellzome Limited, priority 2011, published 2014).

Columns and labels:
[1] = target: T1, BLK (Homo sapiens, UniProt P51451); test: Kinobeads assay with quantitative mass spectrometry, BLK; assay type: binding; conditions: Jurkat/Ramos lysate, read-out: BLK inhibition value (IC50)
T1 construct: endogenous in cells; host or cells: 1:1 mix of Jurkat and Ramos cell lysates
Protocol: Selected compounds of the present invention as described in the previous examples were tested in a Kinobeads™ assay as described (WO-A 2006/134056; Bantscheff et al., 2007. Nature Bioteclmol. 25, 1035-1044).
Compounds were incubated with cell lysate aliquots (1:1 mix of Jurkat and Ramos cell lysates) for 45 minutes at 4° C. and allowed to bind to the proteins in the lysate sample. Then the Kinobeads™ affinity matrix was added to capture proteins that were not interacting with the previously added compound. After this two hour incubation step at 4° C. beads were separated from the lysate and bead bound proteins were eluted in SDS sample buffer and subsequently separated by SDS-Polyacrylamide gel electrophoresis. The gel was stained with colloidal Coomassie and stained areas of each gel lane were cut out and subjected to in-gel proteolytic digestion with trypsin. Peptides originating from the different gel areas were labeled with isobaric tagging reagents (TMT reagents, Thermofisher) as shown in Table 7. The TMT reagents are a set of multiplexed, amine-specific, stable isotope reagents that can label peptides in up to six different biological samples enabling simultaneous identification and quantitation of peptides. The combined samples were fractionated using reversed-phase chromatography at pH 11 and fractions were subsequently analyzed with a nano-flow liquid chromatography system coupled online to a tandem mass spectrometer (LC-MSMS) experiment followed by reporter ion quantification in the MSMS spectra (Ross et al., 2004. Mol. Cell. Proteomics 3(12):1154-1169; Dayon et al., 2008. Anal. Chem. 80(8):2921-2931; Thompson et al., 2003. Anal. Chem. 75(8):1895-1904). Further experimental protocols can be found in WO2006/134056 and previous publications (Bantscheff et al., 2007. Nat. Biotechnol. 25, 1035-1044; Bantscheff et al., 2011. Nat. Biotechnol. 29(3):255-265).

[2] = target: T2, BTK (Homo sapiens, UniProt Q06187); test: Radiometric protein kinase assay (33PanQinase, ProQinase), BTK; assay type: biochemical; conditions: read-out: BTK enzyme assay IC50
T2 construct: purchased ProQinase GmbH, Freiburg, Germany
T2 sequence (Q06187 whole entry): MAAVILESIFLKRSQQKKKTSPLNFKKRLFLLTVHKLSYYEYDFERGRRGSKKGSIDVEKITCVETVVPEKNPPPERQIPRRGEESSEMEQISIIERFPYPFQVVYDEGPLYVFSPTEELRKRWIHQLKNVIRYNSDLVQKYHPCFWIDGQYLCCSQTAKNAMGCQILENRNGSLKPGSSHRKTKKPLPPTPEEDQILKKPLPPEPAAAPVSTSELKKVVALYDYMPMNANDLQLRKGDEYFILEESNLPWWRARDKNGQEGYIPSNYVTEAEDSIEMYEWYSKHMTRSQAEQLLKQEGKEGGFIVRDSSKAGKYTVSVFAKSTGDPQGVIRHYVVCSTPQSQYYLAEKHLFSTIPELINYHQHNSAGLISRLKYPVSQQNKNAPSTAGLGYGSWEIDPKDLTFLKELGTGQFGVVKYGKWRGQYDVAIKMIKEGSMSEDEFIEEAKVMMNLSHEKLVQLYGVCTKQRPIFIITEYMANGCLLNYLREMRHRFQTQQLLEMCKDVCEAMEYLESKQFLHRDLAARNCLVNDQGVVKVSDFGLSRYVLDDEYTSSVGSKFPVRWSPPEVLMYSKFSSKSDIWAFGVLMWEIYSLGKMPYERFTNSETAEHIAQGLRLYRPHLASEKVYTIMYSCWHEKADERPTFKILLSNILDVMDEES
Protocol: (§1) A radiometric protein kinase assay (^33PanQinase® Activity Assay; ProQinase GmbH, Freiburg, Germany) was used for measuring the kinase activity of the protein kinases BLK, BTK, ITK and JAK3. All kinase assays were performed in 96-well FlashPlates™ from PerkinElmer (Boston, Mass., USA) in a 50 μl reaction volume. The reaction cocktail was pipetted in four steps in the following order: • 20 μl of assay buffer (standard buffer) • 5 μl of ATP solution (in H2O) • 5 μl of test compound (in 10% DMSO) • 10 μl of substrate/10 μl of enzyme solution (premixed)
(§2) The reaction cocktails were incubated at 30° C. for 60 minutes. The reaction was stopped with 50 μl of 2% (v/v) H3PO4, plates were aspirated and washed two times with 200 μl 0.9% (w/v) NaCl. Incorporation of ^33Pi was determined with a microplate scintillation counter (Microbeta, Wallac). All assays were performed with a BeckmanCoulter/SAGIAN™ Core System.

[3] = target: T3, JAK3 (Homo sapiens, UniProt P52333); test: Radiometric protein kinase assay (33PanQinase, ProQinase), JAK3; assay type: biochemical; parameters: endogenous in cells; host or cells: mixed Molt4/Ramos cell lysate (1:2); conditions: read-out: JAK3 enzyme assay IC50
T3 sequence (P52333 1-1124): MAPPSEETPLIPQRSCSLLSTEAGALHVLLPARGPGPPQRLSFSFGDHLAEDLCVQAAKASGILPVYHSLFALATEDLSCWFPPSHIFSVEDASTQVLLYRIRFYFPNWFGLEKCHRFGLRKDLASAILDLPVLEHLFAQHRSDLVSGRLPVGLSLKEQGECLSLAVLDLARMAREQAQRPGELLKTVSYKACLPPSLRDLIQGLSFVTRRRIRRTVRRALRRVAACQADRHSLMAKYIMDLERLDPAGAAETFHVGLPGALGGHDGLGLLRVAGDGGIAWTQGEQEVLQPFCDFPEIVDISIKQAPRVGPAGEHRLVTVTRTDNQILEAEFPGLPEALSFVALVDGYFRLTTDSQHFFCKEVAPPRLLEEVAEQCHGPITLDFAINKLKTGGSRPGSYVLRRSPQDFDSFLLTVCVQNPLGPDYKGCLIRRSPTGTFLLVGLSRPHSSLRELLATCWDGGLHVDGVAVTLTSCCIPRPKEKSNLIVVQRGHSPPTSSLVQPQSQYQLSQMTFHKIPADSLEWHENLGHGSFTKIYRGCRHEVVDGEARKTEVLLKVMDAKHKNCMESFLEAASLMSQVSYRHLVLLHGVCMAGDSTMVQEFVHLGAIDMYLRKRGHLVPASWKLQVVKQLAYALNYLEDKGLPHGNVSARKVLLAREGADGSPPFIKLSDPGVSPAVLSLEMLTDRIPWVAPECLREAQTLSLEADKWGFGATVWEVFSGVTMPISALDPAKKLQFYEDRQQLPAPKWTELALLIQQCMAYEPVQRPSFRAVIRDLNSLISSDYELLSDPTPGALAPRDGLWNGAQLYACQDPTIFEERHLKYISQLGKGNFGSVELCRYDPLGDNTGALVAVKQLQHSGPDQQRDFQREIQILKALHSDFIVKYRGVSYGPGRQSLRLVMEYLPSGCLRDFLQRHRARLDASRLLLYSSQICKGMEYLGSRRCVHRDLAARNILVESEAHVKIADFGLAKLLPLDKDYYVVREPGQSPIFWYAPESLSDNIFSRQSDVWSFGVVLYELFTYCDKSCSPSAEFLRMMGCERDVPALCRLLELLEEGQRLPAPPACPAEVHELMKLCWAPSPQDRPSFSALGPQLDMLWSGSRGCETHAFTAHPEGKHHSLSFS
Protocol: as §1, §2

T1 sequence (P51451 whole entry): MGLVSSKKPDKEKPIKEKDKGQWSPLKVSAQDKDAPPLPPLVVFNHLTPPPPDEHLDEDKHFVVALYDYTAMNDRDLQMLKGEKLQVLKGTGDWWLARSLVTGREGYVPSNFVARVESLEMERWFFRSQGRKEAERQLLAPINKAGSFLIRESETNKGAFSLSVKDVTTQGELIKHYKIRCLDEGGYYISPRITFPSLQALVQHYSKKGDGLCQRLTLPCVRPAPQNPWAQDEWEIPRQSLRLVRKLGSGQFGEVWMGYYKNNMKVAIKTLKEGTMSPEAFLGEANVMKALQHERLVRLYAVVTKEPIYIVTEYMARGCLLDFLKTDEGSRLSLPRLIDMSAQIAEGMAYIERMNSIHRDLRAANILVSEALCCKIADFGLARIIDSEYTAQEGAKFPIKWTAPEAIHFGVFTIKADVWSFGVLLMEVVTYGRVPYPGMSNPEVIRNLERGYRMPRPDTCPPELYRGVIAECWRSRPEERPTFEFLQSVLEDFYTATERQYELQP

SMILES	IC50 [1]	IC50 [2]	IC50 [3]
C=CC(=O)Nc1cc(Cn2ncc3cnc(Nc4cnn(C)c4)nc32)ccc1F [Example 2, […]]	406 nM	323 nM	
C=CS(=O)(=O)Nc1cccc(Cn2ncc3cnc(Nc4cnn(C)c4)nc32)c1 [Example 4, N-(3-((6-((1-Methyl-1H-pyrazol-4-yl)amino)-1H-pyrazolo[3,4-d]pyrimidin-1-yl)methyl)phenyl)ethenesulfonamide]		20 nM	7 nM
CC(=O)Nc1cccc(Cn2ncc3cnc(Nc4cnn(C)c4)nc32)c1 [compound 2, N-(3-((6-((1-methyl-1H-pyrazol-4-yl)amino)-1H-pyrazolo[3,4-d]pyrimidin-1-yl)methyl)phenyl)acetamide, reference compound]		2000 nM	290 nM

Continued by falling IC50 [2], values first:

IC50 [1]	IC50 [2]	IC50 [3]	SMILES
20 nM	20 nM	3 nM	C=CC(=O)Nc1cccc(Cn2ncc3cnc(Nc4cnn(C)c4)nc32)c1 [Example 1, N-(3-((6-((1-Methyl-1H-pyrazol-4-yl)amino)-1H-pyrazolo[3,4-d]pyrimidin-1-yl)methyl)phenyl)acrylamide]
12 nM	1 nM	4 nM	C#CC(=O)Nc1cccc(Cn2ncc3cnc(Nc4cnn(C)c4)nc32)c1 [Example 3, N-(3-((6-((1-Methyl-1H-pyrazol-4-yl)amino)-1H-pyrazolo[3,4-d]pyrimidin-1-yl)methyl)phenyl)propiolamide]
